Data reported in article PMC10600247, “Impact of C- and N-terminal protection on the stability, metal chelation and antimicrobial properties of calcitermin” (Scientific Reports, 2023).
Residues, ends and D or L forms follow the SMILES beside them.

Experiments:
[1] = in vitro; conditions: human, pH 7.4
Experimental: Each peptide (C = 1·10^–4 M) and metal complex (metal:ligand ratio 1:1) was incubated in a sample containing 1 ml of human plasma (obtained as a pool of 40 individuals from the University Hospital of Ferrara) and 1 ml of ammonium acetate buffer (pH 7.4) at 37 °C. L-phenylalaninol is added as internal standard. At regular time intervals, 200 μl aliquots were taken and enzymatic reaction was blocked by adding 300 μl of HClO4 0.5 M. The sample was then centrifugated for 6 min at 14,000 × g. The supernatant was then filtered and analysed by HPLC. The analytical column was an Agilent Poroshell 120 SB-C18 (4.6 × 100 mm, 2.7 μm, pore size 120 Å). Flow rate = 0.5 ml/min, mobile phase H2O + 0.1% v/v TFA, linear gradient from 0 to 60% of acetonitrile + 0.1% v/v TFA over 30 min for the elution of peptides, temperature 25 °C, detection wavelength 210 nm. […] Informed consent was obtained from all subjects and/or their legal guardian(s) prior to the donation of blood samples. All experimental protocols were approved by the National Research and Research Transversal Processes boards at University of Ferrara. All methods were carried out in accordance with relevant guidelines and regulations.

[2] = Text: Stability constants for proton and metal complexes were obtained from pH-metric titration curves registered at T = 298 K and ionic strength 0.1 M (KCl). The potentiometric apparatus was previously described. Solutions were titrated with 0.1 M carbonate-free KOH. The electrode was daily calibrated for hydrogen ion concentration by titrating HNO3 with the standard base solution, under the same experimental conditions as above. The asymmetry potential and the slope of the electrode couple were computed by means of […][41] and Glee[42] programs. The purities and exact concentrations of the ligand solutions were determined by the Gran method. The […][44] program was employed for the overall formation constant (β) calculations, referred to the following equilibrium equation: pM + qL + rH ⇆ MpLqHr (charges omitted; p is 0 in the case of ligand protonation; r can be negative). The computed standard deviations (referring to random errors only) were given by the program itself and are shown in parentheses as uncertainties on the last significant figure. Hydrolysis constants for metal ions were taken from the literature[45],[46]. The distribution and competition diagrams were computed using the HYSS program.
1. Wild-type calcitermin: thermodynamic data
Wild-type calcitermin (WT) has been previously investigated by our research group in aqueous solutions and ionic medium NaClO4.1 For the sake of comparison, potentiometric studies of WT and its copper and zinc complexes have been performed in a different ionic medium (KCl 0.1 M). The study of the speciation under different experimental conditions, changing ionic medium and metal-ligand ratio, is essential to comprehensively describe the thermodynamics of calcitermin, which is usually found in multicomponent media like biological fluids.
Table S1. Equilibrium constants for protonation of WT and its Cu2+ and Zn2+ complex formation at T = 298 K and I = 0.1 M (KCl). Values in parentheses are standard deviations on the last significant figure.

[3] = T = 298 K, I = 0.1 M (KCl), charges omitted
[4] = Table S1, T = 298 K, I = 0.1 M (KCl), charges omitted

Compound: CC[C@H](C)[C@H](NC(=O)[C@H](C)NC(=O)[C@@H](NC(C)=O)C(C)C)C(=O)N[C@@H](C)C(=O)N[C@@H](CC(C)C)C(=O)N[C@@H](CCCCN)C(=O)N[C@@H](C)C(=O)N[C@@H](C)C(=O)N[C@@H](Cc1c[nH]cn1)C(=O)N[C@@H](Cc1ccc(O)cc1)C(=O)N[C@@H](Cc1c[nH]cn1)C(=O)N[C@H](C(=O)N[C@@H](Cc1c[nH]cn1)C(=O)N[C@@H](CCCCN)C(=O)N[C@@H](CCC(=O)O)C(N)=O)[C@@H](C)O [L2, Ac-VAIALKAAHYHTHKE-NH2] (Ac-VAIALKAAHYHTHKE-NH2)
- half-life [1]: ~68 min
- pKa [CuH2L] [2]: 5.49
- pKa [CuH-1L] [2]: 9.44
- pKa [CuH-2L] [2]: 9.91
- pKa [CuHL] [2]: 6.30
- pKa [CuL] [2]: 6.70
- pKa [ZnH2L] [2]: 6.14
- pKa [ZnH-1L] [2]: 9.44
- pKa [ZnHL] [2]: 7.63
- pKa [ZnL] [2]: 8.93
- logβ [CuH2L] [2, 3]: 23.06(4)
- logβ [CuH-1L] [2, 3]: 4.57(6)
- logβ [CuHL] [2, 3]: 17.57(5)
- logβ [CuL] [2, 3]: 11.27(7)
- logβ [ZnH2L] [2, 3]: 20.29(6)
- logβ [ZnHL] [2, 3]: 14.15(4)
- logβ [ZnL] [2, 3]: 6.52(5)

Compound: CC[C@H](C)[C@H](NC(=O)[C@H](C)NC(=O)[C@@H](N)C(C)C)C(=O)N[C@@H](C)C(=O)N[C@@H](CC(C)C)C(=O)N[C@@H](CCCCN)C(=O)N[C@@H](C)C(=O)N[C@@H](C)C(=O)N[C@@H](Cc1c[nH]cn1)C(=O)N[C@@H](Cc1ccc(O)cc1)C(=O)N[C@@H](Cc1c[nH]cn1)C(=O)N[C@H](C(=O)N[C@@H](Cc1c[nH]cn1)C(=O)N[C@@H](CCCCN)C(=O)N[C@@H](CCC(=O)O)C(=O)O)[C@@H](C)O [WT, VAIALKAAHYHTHKE, reference compound] (H-VAIALKAAHYHTHKE-OH)
- half-life [1]: 18 ± 3 min
- logβ [CuH2L] [2, 3]: 33.77(4)
- logβ [CuH3L] [2, 3]: 40.77(4)
- logβ [CuH4L] [2, 3]: 46.97(3)
- logβ [CuH5L] [2, 3]: 52.07(3)
- logβ [CuH6L] [2, 3]: 56.40(6)
- logβ [CuH-1L] [2, 3]: 6.90(5)
- logβ [CuH-3L] [2, 3]: -14.19(5)
- logβ [CuHL] [2, 3]: 26.20(4)
- logβ [CuL] [2, 3]: 16.83(5)
- logβ [ZnH2L] [2, 3]: 28.59(5)
- logβ [ZnH3L] [2, 3]: 36.47(5)
- logβ [ZnH4L] [2, 3]: 43.55(3)
- logβ [ZnH5L] [2, 3]: 49.30(8)
- logβ [ZnH-1L] [2, 3]: -0.2(1)
- logβ [ZnH-2L] [2, 3]: -10.8(1)
- logβ [ZnHL] [2, 3]: 20.11(6)
- logβ [ZnL] [2, 3]: 10.35(8)
- logK, line of [CuH2L] [2, 4]: 7.00
- logK, line of [CuH3L] [2, 4]: 6.21
- logK, line of [CuH4L] [2, 4]: 5.09
- logK, line of [CuH5L] [2, 4]: 4.34
- logK, line of [CuH-1L] [2, 4]: 9.93
- logK, line of [CuHL] [2, 4]: 7.58
- logK, line of [CuL] [2, 4]: 9.37
- logK, line of [ZnH2L] [2, 4]: 7.87
- logK, line of [ZnH3L] [2, 4]: 7.08
- logK, line of [ZnH4L] [2, 4]: 5.75
- logK, line of [ZnH-1L] [2, 4]: 10.5
- logK, line of [ZnH-2L] [2, 4]: 10.7
- logK, line of [ZnHL] [2, 4]: 8.48
- logK, line of [ZnL] [2, 4]: 9.77

Compound: CC[C@H](C)[C@H](NC(=O)[C@H](C)NC(=O)[C@@H](N)C(C)C)C(=O)N[C@@H](C)C(=O)N[C@@H](CC(C)C)C(=O)N[C@@H](CCCCN)C(=O)N[C@@H](C)C(=O)N[C@@H](C)C(=O)N[C@@H](Cc1c[nH]cn1)C(=O)N[C@@H](Cc1ccc(O)cc1)C(=O)N[C@@H](Cc1c[nH]cn1)C(=O)N[C@H](C(=O)N[C@@H](Cc1c[nH]cn1)C(=O)N[C@@H](CCCCN)C(=O)N[C@@H](CCC(=O)O)C(N)=O)[C@@H](C)O [L3, VAIALKAAHYHTHKE-NH2] (H-VAIALKAAHYHTHKE-NH2)
- half-life [1]: ~20 min
- pKa [CuH2L] [2]: 7.75
- pKa [CuH3L] [2]: 6.90
- pKa [CuH4L] [2]: 6.21
- pKa [CuH5L] [2]: 5.16
- pKa [CuHL] [2]: 9.53
- pKa [CuL] [2]: 10.01
- pKa [ZnH2L] [2]: 8.65
- pKa [ZnH3L] [2]: 7.69
- pKa [ZnH4L] [2]: 7.32
- pKa [ZnH5L] [2]: 5.6
- pKa [ZnHL] [2]: 9.47
- logβ [CuH2L] [2, 3]: 33.11(2)
- logβ [CuH3L] [2, 3]: 40.00(3)
- logβ [CuH4L] [2, 3]: 46.21(2)
- logβ [CuH5L] [2, 3]: 51.38(2)
- logβ [CuH-1L] [2, 3]: 5.82(4)
- logβ [CuHL] [2, 3]: 25.36(3)
- logβ [CuL] [2, 3]: 15.83(5)
- logβ [ZnH2L] [2, 3]: 28.06(4)
- logβ [ZnH3L] [2, 3]: 35.75(6)
- logβ [ZnH4L] [2, 3]: 43.07(3)
- logβ [ZnH5L] [2, 3]: 48.7(1)
- logβ [ZnHL] [2, 3]: 19.40(5)
- logβ [ZnL] [2, 3]: 9.94(4)

Compound: CC[C@H](C)[C@H](NC(=O)[C@H](C)NC(=O)[C@@H](NC(C)=O)C(C)C)C(=O)N[C@@H](C)C(=O)N[C@@H](CC(C)C)C(=O)N[C@@H](CCCCN)C(=O)N[C@@H](C)C(=O)N[C@@H](C)C(=O)N[C@@H](Cc1c[nH]cn1)C(=O)N[C@@H](Cc1ccc(O)cc1)C(=O)N[C@@H](Cc1c[nH]cn1)C(=O)N[C@H](C(=O)N[C@@H](Cc1c[nH]cn1)C(=O)N[C@@H](CCCCN)C(=O)N[C@@H](CCC(=O)O)C(=O)O)[C@@H](C)O [L1, Ac-VAIALKAAHYHTHKE] (Ac-VAIALKAAHYHTHKE-OH)
- half-life [1]: 135 min
- pKa [CuH2L] [2]: 4.40
- pKa [CuH-1L] [2]: 6.88
- pKa [CuHL] [2]: 5.38
- pKa [CuL] [2]: 6.59
- pKa [ZnHL] [2]: 5.80
- pKa [ZnL] [2]: 7.33
- logβ [CuH2L] [2, 3]: 18.21(3)
- logβ [CuH-1L] [2, 3]: 1.84(3)
- logβ [CuHL] [2, 3]: 13.81(2)
- logβ [CuL] [2, 3]: 8.43(2)
- logβ [ZnHL] [2, 3]: 11.00(5)
- logβ [ZnL] [2, 3]: 5.21(2)
